{
  "source": "patent US8388953B2",
  "about": "“Method of increasing cathepsin B-induced cleavage of amyloid-β peptides” (The J. David Gladstone Institutes, priority 2006, dated 2013)",
  "key": {"[1]": {"target": "T1, purified CatB from human liver (Homo sapiens, UniProt P07858)", "T1 construct": "purified CatB from human liver (Sigma); purchased Sigma; host or cells: human liver (tissue-purified)", "test": "Inhibition of CatB-induced Aβ1-42 cleavage by CA074 in the in vitro cleavage assay", "assay_type": "biochemical", "experimental": "(§1) Different amounts of purified CatB from human liver (Sigma) were preactivated with 4 mM cysteine at room temperature for 5 min in assay buffer, pH 6.0 or 7.0 after adjustment (Cathepsin B Activity Assay Kit, EMD Biosciences). Then, 20 ng of fresh, protofibrillar, or fibrillar Aβ1-42 was added and incubated at 37° C. for 120 min. All samples were run in parallel with and without the specific CatB inhibitor CA074. CatB-induced peptidase cleavage of Aβ1-42 was detected with mass spectrometry. Briefly, 5 μl of the reaction mixture was applied to an NP-20 normal-phase chip (Ciphergen Biosystems, Fremont, Calif.), and the spots were washed with water and air-dried. Twenty percent α-cyano-4-hydroxycinnamic acid in 50% acetonitrile, 0.5% trifluoroacetic acid (2×0.5 μl) was applied, and the chips were allowed to dry. Samples were analyzed in a PBS ITC SELDI-TOF mass spectrometer (Ciphergen) as an average of 160 shots for each spot. The system was calibrated daily with All-in-One peptide standards (Ciphergen) and synthetic Aβ1-42.\n(§2) The products were also analyzed by western blotting on acid-urea gels with an anti-Aβ antibody (3D6) as described (DeMattos et al., 2001; Esposito et al., 2004) or on a Tricine SDS-PAGE. Briefly, 10 μl of the reaction mixture were resolved on 16% tricine gels and transferred to nitrocellulose membranes. Membranes were labeled with 21F12 (1:2000, Elan Pharmaceuticals), an antibody specific for Aβ1-42, to detect low MW Aβ1-42 oligomers. Since 21F12 was unable to detect higher MW assemblies, 3D6 (1:2000, Elan) was also used for immunoblotting. After incubation with an HRP-conjugated sheep anti-mouse IgG (1:2000; Amersham) secondary antibody, blots were developed with an ECL system (Perkin Elmer)."}, "[2]": {"test_system": "cathepsin B activity in neuronal cells (N2a)", "test": "CatB activity assay in N2a cells treated with indomethacin", "assay_type": "cell-based, murine", "details": "indomethacin 25 μM-75 μM, 18-24 h", "experimental": "(§3) Unless otherwise noted, all cell culture supplies, medium, and antibiotics were from Invitrogen (Carlsbad, Calif.). The murine neuronal cell line N2A was maintained in Dulbecco's modified Eagle's medium (DMEM) with 10% heat-inactivated fetal bovine serum (FBS), 100 U/ml penicillin G, and 100 μg/ml streptomycin at 37° C. in a humidified atmosphere containing 5% CO2. Before treatment, the medium was replaced with Neurobasal A medium supplemented with N2, and the cells were treated with fresh Aβ1-42 or Aβ1-40 at various concentrations for 24 h.\n(§4) CatB activities in N2A cells or in hippocampus of hAPP mice and their littermate controls were quantified with the Innozyme Cathepsin B Activity Assay Kit (EMD Biosciences), according to the manufacturer's instructions. Cells or hippocampi were lysed in lysis buffer in the absence of proteinase inhibitors, preactivated with 4 mM cysteine, and incubated with the synthetic substrate Z-Arg-Arg AMC at 37° C. for 30 min. Released free AMC was determined fluorometrically as above. The enzymatic activities inhibited by CA074 were defined as CatB-specific activities. Protein concentrations were measured with the BCA protein assay kit (Pierce) and used to normalize CatB activities.\nNeurobiatoma cell N2a cells were treated with indomethacin (25 μM-75 μM) for 18-24 h before being harvested for CatB activity assay."}, "CatB in N2A cells": {"test_system": "CatB in N2A cells", "test": "N2A cells treated with Aβ peptides: CatB mRNA (quantitative RT-PCR) and CatB activity", "assay_type": "cell-based, murine", "details": "20 μM; for CatB enzymatic activities / CatB mRNA levels: nonaggregated peptide, 24 h", "experimental": "as §3\n(§5) Aβ1-42 and Aβ1-40 were from rPeptide (Athens, Ga.). Aβ powders lyophilized with hexafluoroisopropanol were reconstituted in dry dimethylsulfoxide (Sigma) at a concentration of 5 mM. Aggregated Aβ1-42 was prepared based on protocols developed in previous studies (Dahlgren et al., 2002; Lambert et al., 1998). For protofibrillar Aβ1-42 preparations, DMEM/F-12 was added to achieve a final peptide concentration of 100 μM and incubated at 4° C. for 24 h. For fibrillar conditions, 10 mM HCl was added to achieve a final peptide concentration of 100 μM and incubated for 24 h at 37° C. For unaggregated conditions (fresh Aβ), the 5 mM Aβ in […] was diluted directly into cell-culture medium. For Aβ1-40 aggregation, Aβ1-40 was reconstituted in H2O at a concentration of 5 mg/ml, and incubated for one week at 37° C.\nas §4\nExpression of CatB was measured by quantitative RT-PCR. Total RNA in N2A cells was isolated with Trizol reagent (Invitrogen). After treatment with RNase-free DNase (Ambion) for 30 min at 37° C., total RNA (60 ng/ml) was reverse-transcribed with random hexamers and oligo d(T) primers. The expression of CatB relative to GAPDH was determined with SYBR green dye chemistry and an ABI Prism 7700 sequence detector (Applied Biosystems, Foster City, Calif.), as recommended by the manufacturer. Primer quality was verified by dissociation curve analysis, the slopes of standard curves, and reactions without RT. The following primers were used: mouse CatB (forward 5′-[…]-3′ (SEQ ID NO:7); reverse 5′-[…]-3′ (SEQ ID NO:8)) and mouse GAPDH (forward 5′-[…]-3′ (SEQ ID NO:9); reverse 5′-[…]-3′ (SEQ ID NO:10))."}, "Aβ1-42": {"test_system": "Aβ1-42", "test": "In vitro cleavage assay of Aβ1-42 by purified CatB (SELDI-TOF MS, western blot, electron microscopy)", "assay_type": "biochemical", "experimental": "as §5\nAβ1-42 and Aβ1-40 samples were characterized by negative-staining electron microscopy (JEOL 1230, Peabody, Mass.). Samples were prepared with “matured” carbon-coated grids and 2% potassium phosphotungstate, pH 6.5, using the drop method (Hamilton et al., 1980), and examined at 80 KV with a condenser aperture of 200 μm and an objective aperture of 50 μm. Images were obtained with a Gatan Ultrascan USC1000 digital camera (Gatan, Warrendale, Pa.).\nas §1, §2"}},
  "data": [
    {"compound": "CCCNC(=O)[C@H]1O[C@@H]1C(=O)N[C@H](C(=O)N1CCC[C@H]1C(=O)O)[C@@H](C)CC", "note": "[CA074]", "values": [
      {"measurement": "effect of the inhibitor on CatB-induced decrease of Aβ assemblies", "setting": "[1]; Tricine SDS-PAGE", "value": "significantly diminished such effects"},
      {"measurement": "effect of the inhibitor on CatB-induced reduction of Aβ1-42 fibrils", "setting": "[1]; electron microscopy", "value": "inhibition with CA074"},
      {"measurement": "CatB-induced truncations of Aβ1-42 in the presence of the inhibitor", "setting": "[1]; pH 6.0, SELDI-TOF", "value": "No truncations occurred"}
    ]},
    {"compound": "COc1ccc2c(c1)c(CC(=O)O)c(C)n2C(=O)c1ccc(Cl)cc1", "note": "[indomethacin]", "values": [
      {"measurement": "CatB activity", "setting": "[2]", "value": "significant increase in CatB activity in a dose-dependent manner"}
    ]},
    {"compound": "Aβ1-40: amyloid-β peptide 1-40 from rPeptide; tested nonaggregated and preaggregated", "values": [
      {"measurement": "CatB enzymatic activities", "setting": "CatB in N2A cells", "value": "little or no effect"},
      {"measurement": "CatB mRNA levels", "setting": "CatB in N2A cells", "value": "little or no effect"},
      {"measurement": "CatB activity", "setting": "CatB in N2A cells; preaggregated peptide", "value": "modest but significant increase"}
    ]},
    {"compound": "Aβ1-42: amyloid-β peptide 1-42 from rPeptide", "values": [
      {"measurement": "CatB enzymatic activities", "setting": "CatB in N2A cells", "value": "markedly increased"},
      {"measurement": "CatB mRNA levels", "setting": "CatB in N2A cells", "value": "markedly increased"}
    ]},
    {"compound": "CatB: purified CatB from human liver (Sigma), preactivated with cysteine", "values": [
      {"measurement": "amounts of high-molecular-weight Aβ assemblies", "setting": "Aβ1-42; Tricine SDS-PAGE, CatB 1-2 μg/ml", "value": "marked decrease"},
      {"measurement": "levels of low-MW Aβ1-42 oligomers and monomers", "setting": "Aβ1-42; Tricine SDS-PAGE, antibody specific for Aβ1-42", "value": "also reduced"},
      {"measurement": "proteolytic products from fresh (nonaggregated) Aβ1-42", "setting": "Aβ1-42; cell-free, pH 6.0, CatB 100-2500 ng/ml, SELDI-TOF", "value": "dose-dependent generation of Aβ1-40, Aβ1-38, and Aβ1-33"},
      {"measurement": "amount of fibrillar structures of preformed Aβ1-42 fibrils", "setting": "Aβ1-42; electron microscopy", "value": "did reduce the amount of fibrillar structures"},
      {"measurement": "ability to cleave Aβ, especially nonaggregated (fresh) Aβ", "setting": "Aβ1-42; neutral pH (~7.0)", "value": "markedly reduced"},
      {"measurement": "cleavage of protofibrillar Aβ1-42", "setting": "Aβ1-42; pH 6.0", "value": "cleaved by CatB as efficiently as nonaggregated preparations"}
    ]}
  ]
}
